How the values were obtained:
[1] = Induction of anti-CD3 antibodies-stimulated human CD8+ T cell activation at 10 uM assessed fold increase in cell proliferation measured by flow cytometry analysis; format: functional, T cell line; further: reference of the scale not given here
[2] = Induction of anti-CD3 antibodies-stimulated human exhausted T cell activation assessed fold increase in GM-CSF secretion measured by ELISA assay; format: functional, T cell line; further: reference of the scale not given here
[3] = Induction of anti-CD3 antibodies-stimulated human CD4+ T cell activation at 10 uM assessed fold increase in CD69 expression measured by flow cytometry analysis; format: functional, T cell line; further: reference of the scale not given here
[4] = Induction of anti-CD3/CD28 antibodies-stimulated human T cell activation at 0.3 uM assessed fold increase in CD25 expression measured by ELISA assay; format: functional, T cell line
[5] = Induction of activation of human CD56+ CD3- NK cells co-cultured with human K562 cells in 1:1 ratio and assessed as increase in IFN-gamma secretion at 0.625 uM measured by ELISA assay; format: functional, Natural killer cell
[6] = Induction of anti-CD3/CD28 antibodies-stimulated human CD8+ T cell activation at 10 uM assessed fold increase in CD69 expression measured by flow cytometry analysis; format: functional, T cell line
[7] = Induction of anti-CD3 antibodies-stimulated human T cell activation at 1.11 uM assessed fold increase in GM-CSF secretion measured by ELISA assay; format: functional, T cell line; further: reference of the scale not given here
[8] = Induction of anti-CD3/CD28 antibodies-stimulated human CD4+ T cell activation at 10 uM assessed fold increase in cell proliferation measured by flow cytometry analysis; format: functional, T cell line
[9] = Induction of anti-CD3 antibodies-stimulated human CD8+ T cell activation at 1.11 uM assessed fold increase in CD69 expression measured by flow cytometry analysis; format: functional, T cell line; further: reference of the scale not given here
[10] = Induction of anti-CD3/CD28 antibodies-stimulated human T cell activation at 10 uM assessed fold increase in TNF-alpha secretion measured by ELISA assay; format: functional, T cell line
[11] = Induction of anti-CD3/CD28 antibodies-stimulated human T cell activation at 1.11 uM assessed fold increase in GM-CSF secretion measured by ELISA assay; format: functional, T cell line
[12] = Induction of activation of human CD56+ CD3- NK cells co-cultured with human K562 cells in 1:1 ratio and assessed as increase in IFN-gamma secretion at 10 uM measured by ELISA assay; format: functional, Natural killer cell
[13] = Induction of anti-CD3 antibodies-stimulated human T cell activation at 1 uM assessed fold increase in CD25 expression measured by ELISA assay; format: functional, T cell line; further: reference of the scale not given here
[14] = Induction of anti-CD3 antibodies-stimulated human exhausted T cell activation assessed fold increase in IL-2 secretion measured by ELISA assay; format: functional, T cell line; further: reference of the scale not given here
[15] = Induction of anti-CD3/CD28 antibodies-stimulated human CD8+ T cell activation at 1.11 uM assessed fold increase in CD69 expression measured by flow cytometry analysis; format: functional, T cell line
[16] = Induction of anti-CD3 antibodies-stimulated human CD8+ T cell activation at 1.11 uM assessed fold increase in cell proliferation measured by flow cytometry analysis; format: functional, T cell line; further: reference of the scale not given here
[17] = Induction of anti-CD3/CD28 antibodies-stimulated human T cell activation at 1.11 uM assessed fold increase in TNF-alpha secretion measured by ELISA assay; format: functional, T cell line
[18] = Induction of anti-CD3/CD28 antibodies-stimulated human CD8+ T cell activation at 1.11 uM assessed fold increase in cell proliferation measured by flow cytometry analysis; format: functional, T cell line
[19] = Induction of activation of human CD56+ CD3- NK cells co-cultured with human K562 cells in 1:1 ratio and assessed as increase in TNF-alpha secretion at 2.5 uM measured by ELISA assay; format: functional, Natural killer cell
[20] = Induction of anti-CD3 antibodies-stimulated human T cell activation at 8 uM assessed fold increase in IL-2 secretion measured by ELISA assay; format: functional, T cell line; further: reference of the scale not given here
[21] = Induction of anti-CD3/CD28 antibodies-stimulated human anergic T cell activation at 0.37 uM assessed fold increase in IFN-gamma secretion measured by ELISA assay; format: functional, T cell line
[22] = Induction of anti-CD3/CD28 antibodies-stimulated human T cell activation at 1.11 uM assessed fold increase in IFN-gamma secretion measured by ELISA assay; format: functional, T cell line
[23] = Induction of anti-CD3 antibodies-stimulated human CD8+ T cell activation at 10 uM assessed fold increase in CD69 expression measured by flow cytometry analysis; format: functional, T cell line; further: reference of the scale not given here
[24] = Induction of anti-CD3 antibodies-stimulated human T cell activation at 10 uM assessed fold increase in IFN-gamma secretion measured by ELISA assay; format: functional, T cell line; further: reference of the scale not given here
[25] = Induction of anti-CD3/CD28 antibodies-stimulated human CD8+ T cell activation at 10 uM assessed fold increase in cell proliferation measured by flow cytometry analysis; format: functional, T cell line
[26] = Induction of anti-CD3/CD28 antibodies-stimulated human T cell activation at 4 uM assessed fold increase in IL-2 secretion measured by ELISA assay; format: functional, T cell line
[27] = Induction of anti-CD3 antibodies-stimulated human exhausted CD8+ T cell activation assessed fold increase in CTLA4 expression measured by flow cytometry analysis; format: functional, T cell line; further: reference of the scale not given here
[28] = Induction of anti-CD3/CD28 antibodies-stimulated human T cell activation at 4 uM assessed fold increase in CD25 expression measured by ELISA assay; format: functional, T cell line
[29] = Induction of anti-CD3 antibodies-stimulated human CD4+ T cell activation at 1.11 uM assessed fold increase in CD69 expression measured by flow cytometry analysis; format: functional, T cell line; further: reference of the scale not given here
[30] = Induction of anti-CD3 antibodies-stimulated human T cell activation at 10 uM assessed fold increase in GM-CSF secretion measured by ELISA assay; format: functional, T cell line; further: reference of the scale not given here
[31] = Induction of anti-CD3/CD28 antibodies-stimulated human anergic T cell activation at 1.11 uM assessed fold increase in IFN-gamma secretion measured by ELISA assay; format: functional, T cell line
B cell = assay: Induction of anti-IgM-stimulated human CD20+ B cell activation at 10 to 1000 uM assessed as increase in CD69 expression measured as mean fluorescence intensity AUC by flow cytometry analysis; format: functional, cell-based; conditions: dose 10-1000 µM
[32] = Induction of anti-CD3/CD28 antibodies-stimulated human T cell activation at 1 uM assessed fold increase in IL-2 secretion measured by ELISA assay; format: functional, T cell line
[33] = Induction of anti-CD3/CD28 antibodies-stimulated human CD4+ T cell activation at 1.11 uM assessed fold increase in cell proliferation measured by flow cytometry analysis; format: functional, T cell line
[34] = Induction of activation of human CD56+ CD3- NK cells co-cultured with human K562 cells in 1:1 ratio and assessed as increase in TNF-alpha secretion at 0.625 uM measured by ELISA assay; format: functional, Natural killer cell
[35] = Induction of anti-CD3 antibodies-stimulated human exhausted CD4+ T cell activation assessed fold increase in CTLA4 expression measured by flow cytometry analysis; format: functional, T cell line; further: reference of the scale not given here
[36] = Induction of anti-CD3 antibodies-stimulated human T cell activation at 1 uM assessed fold increase in IL-2 secretion measured by ELISA assay; format: functional, T cell line; further: reference of the scale not given here
[37] = Induction of activation of human CD56+ CD3- NK cells co-cultured with human K562 cells in 1:1 ratio and assessed as increase in IFN-gamma secretion at 2.5 uM measured by ELISA assay; format: functional, Natural killer cell

Structure (SMILES) | fold change (FC) [1] | fold change (FC) [2] | fold change (FC) [3] | fold change (FC) [4] | fold change (FC) [5] | fold change (FC) [6] | fold change (FC) [7] | fold change (FC) [8] | fold change (FC) [9] | fold change (FC) [10] | fold change (FC) [11] | fold change (FC) [12] | fold change (FC) [13] | fold change (FC) [14] | fold change (FC) [15] | fold change (FC) [16] | fold change (FC) [17] | fold change (FC) [18] | fold change (FC) [19] | fold change (FC) [20] | further results
Cc1cc(C(=O)Nc2cccc([C@@H](C)Cc3nncn3C)c2)nc(C2CC2)n1 | >4 | <=1.4 | >1.601 | 1.01 | 1.01 | 1.201 | <=1.5 | >4 | <=1.2 | 2.01 | 1.51 | 2.01 | 0.801 | <=2.5 | 1.201 | 2.01 | <=1.5 | 2.01 | <=1 | 0.101 | fold change (FC) [21]: <=2.5; fold change (FC) [22]: 3.01; fold change (FC) [23]: 1.201; fold change (FC) [24]: <=2; fold change (FC) [25]: >4; fold change (FC) [26]: 2.51; fold change (FC) [27]: <=1.4; fold change (FC) [28]: 1.01; fold change (FC) [29]: 1.401; fold change (FC) [30]: 1.51; fold change (FC) [31]: <=2.5; AUC (B cell): 1.01; fold change (FC) [32]: 1.01; fold change (FC) [33]: >4; fold change (FC) [34]: <=1; fold change (FC) [35]: <=1.4; fold change (FC) [36]: 0.051; fold change (FC) [37]: 1.01
C[C@@H](c1cc2c(c(C(F)(F)F)c1)CN(c1cccc(C3(Cc4nncn4C)COC3)c1)C2=O)N1CC[C@H](F)C1 | >4 | 1.41 | >1.601 | 1.31 | 2.01 | 1.201 | >4 | >4 | 1.401 | >4 | >4 | >=5 | >=1.001 | <=2.5 | 1.201 | >4 | 2.01 | >4 | 2.01 | >=0.201 | fold change (FC) [21]: <=2.5; fold change (FC) [22]: >4; fold change (FC) [23]: 1.401; fold change (FC) [24]: >4; fold change (FC) [25]: >4; fold change (FC) [26]: >=7.5; fold change (FC) [27]: <=1.4; fold change (FC) [28]: 1.51; fold change (FC) [29]: >1.601; fold change (FC) [30]: >4; fold change (FC) [31]: >4.01; AUC (B cell): > 1.51; fold change (FC) [32]: >=7.5; fold change (FC) [33]: >4; fold change (FC) [34]: 2.01; fold change (FC) [35]: <=1.4; fold change (FC) [36]: >=0.201; fold change (FC) [37]: 2.01
C[C@H](Cc1nncn1C)c1cccc(N2Cc3c(cccc3C(F)(F)F)C2=O)c1.Cl | <=2 | <=1.4 | <=1.2 | 1.31 | 1.01 | 1.201 | <=1.5 | 3.01 | <=1.2 | 1.51 | <=1.5 | 2.01 | 0.601 | <=2.5 | <=1.2 | <=2 | <=1.5 | <=2 | 1.01 | >=0.201 | fold change (FC) [21]: <=2.5; fold change (FC) [22]: 3.01; fold change (FC) [23]: <=1.2; fold change (FC) [24]: <=2; fold change (FC) [25]: 2.01; fold change (FC) [26]: 5; fold change (FC) [27]: 1.41; fold change (FC) [28]: >=1.76; fold change (FC) [29]: <=1.2; fold change (FC) [30]: <=1.5; fold change (FC) [31]: 2.51; AUC (B cell): 1.01; fold change (FC) [32]: 2.51; fold change (FC) [33]: <=2; fold change (FC) [34]: 1.01; fold change (FC) [35]: 1.41; fold change (FC) [36]: 0.051; fold change (FC) [37]: 1.01
Cn1cnnc1CC1(c2cccc(N3Cc4c(cc(CN5CC(F)C5)cc4C(F)(F)F)C3=O)c2)COC1 | >4 | >1.61 | >1.601 | 1.31 | 2.01 | 1.201 | 2.01 | >4 | 1.201 | 2.01 | 2.01 | >=5 | >=1.001 | <=2.5 | 1.201 | >4 | 2.01 | 3.01 | 2.01 | >=0.201 | fold change (FC) [21]: 2.51; fold change (FC) [22]: 3.01; fold change (FC) [23]: 1.401; fold change (FC) [24]: >4; fold change (FC) [25]: >4; fold change (FC) [26]: >=7.5; fold change (FC) [27]: >1.61; fold change (FC) [28]: 1.51; fold change (FC) [29]: >1.601; fold change (FC) [30]: >4; fold change (FC) [31]: 2.51; AUC (B cell): 1.01; fold change (FC) [32]: >=7.5; fold change (FC) [33]: >4; fold change (FC) [34]: 1.01; fold change (FC) [35]: >1.61; fold change (FC) [36]: 0.151; fold change (FC) [37]: 2.01

— ChEMBL document CHEMBL5050844 (2019)
